Test results reported in patent US12616753B2, “HSP70 inhibitors and methods of using same” (THE WISTAR INSTITUTE, priority 2020, dated 2026).

Experiments:
MC38 cells = assay: Matrigel invasion assay; type: cell-based, mouse; conditions: low doses, 24 hours
Protocol: FIG. 24A: MC38 cells were subjected to invasion assays using BioCoat Matrigel transwells in the presence of the indicated concentrations of AP-4-139B. 24 hours later, cells were fixed and stained with Crystal Violet. Shown are representative images taken from 8 random fields of view per well. Scale bar=100 μm. FIG. 24B: Quantification of FIG. 24A *** p<0.001. FIG. 24C: Schematic representation of the metastasis assay. 4×10^5 MC38 cells were injected into the tail vein of 8-10 week old male C57Bl/6 mice. Mice were treated with i.p. injection of 10 mg/kg AP-4-139B every 48 hours. After 3 weeks, the lungs of mice were formalin fixed and H&E stained, and assessed for the presence of metastatic nodules. FIG. 24D: Representative images of lung metastases (black arrows) from C57Bl/6 mice injected with MC38 cells in the tail vein, followed by treatment with vehicle or AP-4-139B. Scale bar=250 μm. FIG. 24E: Quantification of FIG. 24D. n=5 mice per group. * p<0.05.
Matrigel invasion assays were carried out using 24-well Corning® BioCoat™ Matrigel Invasion Chambers with an 8.0 μm PET membrane (#354480). Transwells were first rehydrated with serum free DMEM for 2 hours at 37° C. […] Number of invaded cells per field (n=8 random fields of view per transwell) were quantified with ImageJSoftware (NIH), normalized to live cells, and expressed as mean±SEM.

[1] = tested on: 1205LU melanoma xenografts; assay: 1205Lu melanoma xenograft in NSG mice; type: in vivo, mouse; conditions: i.p. twice per week
Protocol: 1205LU melanoma xenografts in NSG mice were established. When tumors reached 100 mm^3 in volume, mice were treated twice per week with the i.p. doses of AP-4-139B indicated.
AP-4-139B was tested as a single agent in a 1205Lu melanoma xenograph in mice. 1205LU melanoma xenografts in NSG mice were established. When tumors reached 100 mm^3 in volume, mice were treated twice per week with the i.p. doses of AP-4-139B indicated.

MC38 tumors = assay: Flow cytometric immunophenotyping of MC38 tumors; type: in vivo, mouse; conditions: 10 mg/kg every 48 hours, 20 days
Protocol: FIG. 6A: 1×10^6 MC38 cells were injected subcutaneously into the right flank of 6-8-week-old male C57Bl/6 mice. Once tumors reached an approximate volume of 100 mm^3, mice were treated with AP-4-139B (10 mg/kg) every 48 hours. 20 days after the start of treatment, tumors were excised, weighed, minced and digested. Tumor-infiltrating and splenic conventional CD4 (cCD4) (Live CD45^+ DUMP^− CD3^+CD4^+Foxp3^−), Tregs (Live CD45^+ DUMP^− CD3^+CD4^+Foxp3^+), CD8 (Live CD45^+ DUMP^− CD3^+CD8^+) T-cells, and Dendritic Cells (Live CD45^+ DUMP^− CD3^−CD11c^+MHCII^+) numbers were assessed by flow cytometry. * p<0.05, n.s. not significant. n=8 mice per group. FIG. 6B: MC38 and HT-29 cells were treated with the indicated concentrations of AP-4-139B for either 8 or 24 hours; media was collected and subjected to WB for HMGB1. Data shown are representative of three technical replicates. FIG. 6C: MC38 and HT-29 cells were treated with the indicated concentrations of AP-4-139B for three hours and then assayed for extracellular ATP release. […]
Tumors were excised, weighed with an electronic scale, minced and digested in 5 mL HBSS containing 1 mg/ml Type 1 Collagenase from Clostridium histolyticum (Sigma-Aldrich) for 30 minutes at 37° C. […] Samples were analyzed using FACSymphony A3 (BD Biosciences) flow cytometer equipped with 5 lasers. Data were analyzed using FlowJo Version 10 and GraphPad Prism software.

[2] = Half-life of PET-16 in plasma

Compound	tumor cell migration and invasion (MC38 cells)	tumor growth, 1205Lu xenograft [1]	tumor weight, 1205Lu xenograft [1]	abundance of immune cell types in spleens (MC38 tumors)	immune cell infiltrates (CD4+ T cell, CD8+ T cell, dendritic cells, Tregs) in tumors (MC38 tumors)	half-life [2] [min]
c1ccc(-c2cn3nc(CCCCCC[P+](c4ccccc4)(c4ccccc4)c4ccccc4)sc3n2)cc1 [AP-4-139B, Triphenyl(6-(6-phenylimidazo[2,1-b][1,3,4]thiadiazol-2-yl)hexyl)phosphonium bromide]	sufficient to inhibit tumor cell migration and invasion	inhibit tumor growth	reduce tumor weight	no changes in abundance	significantly increased immune cell infiltrates	–
C(#C[P+](c1ccccc1)(c1ccccc1)c1ccccc1)c1ccccc1 [PET-16, Triphenyl(phenylethynyl)phosphonium bromide, reference compound]	–	–	–	–	–	< 30
